In the assay the test system is LG0567-F671-PDC KRAS tumor spheroid viability. Description: Anticancer human tumor LG0567-F671-PDC patient-derived lung adenocarcinoma cell line growth inhibition [KRAS2]. As to conditions: spheroids with HUVEC and MSC; for pIC50: curve of first compound; for viability, T/C: stronger effect = lower value. Summed up: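 Combination screen of spheroid viability in tumor-cell co-cultures with endothelial (HUVEC) and mesenchymal stem cell stroma. Each agent was tested in half-log dilutions, topping at clinical Cmax or at 10 microM without a known Cmax.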

The mark [1] stands for this setting: second compound 0.1 µM, first compound 0.00316 µM.
Where [2] appears, read: second compound 0.1 µM, first compound 0.01 µM.
[3] abbreviates: second compound 0.1 µM, first compound 0.0316 µM.
The mark [4] stands for this setting: second compound 0.1 µM, first compound 0.1 µM.
[5] abbreviates: second compound 0.1 µM, first compound 0.316 µM.
Setting [6] is: second compound 0.1 µM, first compound 1 µM.
[7] abbreviates: second compound 0.316 µM, first compound 0.00316 µM.
Where [8] appears, read: second compound 0.316 µM, first compound 0.01 µM.
The mark [9] stands for this setting: second compound 0.316 µM, first compound 0.0316 µM.
[10] abbreviates: second compound 0.316 µM, first compound 0.1 µM.
[11] abbreviates: second compound 0.316 µM, first compound 0.316 µM.
[12] abbreviates: second compound 0.316 µM, first compound 1 µM.
Where [13] appears, read: second compound 1 µM, first compound 0.00316 µM.
Setting [14] is: second compound 1 µM, first compound 0.01 µM.
Where [15] appears, read: second compound 1 µM, first compound 0.0316 µM.
Setting [16] is: second compound 1 µM, first compound 0.1 µM.
[17] abbreviates: second compound 1 µM, first compound 0.316 µM.
Setting [18] is: second compound 1 µM, first compound 1 µM.
Setting [19] is: second compound 3.16 µM, first compound 0.00316 µM.
The mark [20] stands for this setting: second compound 3.16 µM, first compound 0.01 µM.
Setting [21] is: second compound 3.16 µM, first compound 0.0316 µM.
The mark [22] stands for this setting: second compound 3.16 µM, first compound 0.1 µM.
[23] abbreviates: second compound 3.16 µM, first compound 0.316 µM.
[24] abbreviates: second compound 3.16 µM, first compound 1 µM.
Where [25] appears, read: second compound 10 µM, first compound 0.0316 µM.
Where [26] appears, read: second compound 10 µM, first compound 0.1 µM.
The mark [27] stands for this setting: second compound 10 µM, first compound 0.316 µM.
[28] abbreviates: second compound 10 µM, first compound 1 µM.

pIC50: −log10 of the molar value. Values joined by “and” are separate entries in the source; they are usually repeats but may differ in a detail not shown here. Identical values can stand only once. Active and inactive are the calls of the source. Rule for the calls: active = viability on the fitted dose curve at most 10% of control; inactive = the rest. Some results are limits rather than exact numbers.

From PubChem BioAssay AID1963856 (Molecular Pharmacology Branch, DTP, NCI, 2024) come the findings set out here.
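Throughout, for pIC50: drug exposure lasted seven days after spheroids formed for three days.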
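Throughout, for viability, T/C: drug exposure lasted seven days after spheroids formed for three days; 100% = DMSO vehicle control viability.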

As usually defined, the pIC50 is −log10 of the IC50, conventionally taken in molar units. For orientation: viability, T/C means the ratio of treated to control. With `CCN1CCN(Cc2ccc(Nc3ncc(F)c(-c4cc(F)c5nc(C)n(C(C)C)c5c4)n3)nc2)CC1` + C=CC(=O)N1CCN(c2nc(=O)n(-c3c(C)ccnc3C(C)C)c3nc(-c4c(O)cccc4F)c(F)cc23)C(C)C1, the pIC50 was above 8.50 (second compound 0.1 µM); above 8.50 (second compound 0.316 µM); above 8.50 (second compound 1 µM); above 8.50 (second compound 3.16 µM); above 8.50 (second compound 10 µM). Besides, the viability, T/C runs as follows: under setting [1], 21.6%; under setting [2], 21.6%; under setting [3], 17.2%; under setting [4], 18.7%; under setting [5], 19.8%; under setting [6], 24.2%. In addition, the viability, T/C under setting [7] is 21.3%; the viability, T/C under setting [8] is 19.6%; the viability, T/C under setting [9] was 16.3%; the viability, T/C under setting [10] is 16.4%; the viability, T/C under setting [11] was 18.6%; the viability, T/C under setting [12] is 25.7%. Moreover, the viability, T/C runs as follows: under setting [13], 21.3%; under setting [14], 22.3%; under setting [15], 16.8%; under setting [16], 17.3%; under setting [17], 22%; under setting [18], 23.7%. In addition, the viability, T/C is, setting by setting: under setting [19], 20.4%; under setting [20], 21.1%; under setting [21], 18.6%; under setting [22], 15.9%; under setting [23], 20.4%; under setting [24], 33.8%. In addition, the viability, T/C is, setting by setting: (second compound 10 µM, first compound 0.00316 µM) 22.3%; (second compound 10 µM, first compound 0.01 µM) 20.6%; under setting [25], 22.3%; under setting [26], 20.6%; under setting [27], 27.9%; under setting [28], 12.8%.

Usually IC50 stands for the concentration that gives 50% inhibition. As for `CC1OCC2(CCN(c3cnc(Sc4ccnc(N)c4Cl)c(N)n3)CC2)C1N` (stereo not drawn), the viability, T/C by setting is: (compound 0.0316 µM) 81.9% and 81.1% and 73.7%; (compound 0.1 µM) 56.3% [middle of 20 runs]; (compound 0.316 µM) 38.5% [middle of 20 runs]; (compound 3.16 µM) 21.6% [middle of 20 runs]; (compound 10 µM) 15.5% [middle of 19 runs]. The half-inhibitory concentration (IC50) is, setting by setting: (compound alone, run of 07/26/2021) 134 nM [middle of 6 runs]; (curve of compound) 163 nM [middle of 5 runs].

With `COc1cc(OC)cc(N(CCNC(C)C)c2ccc3ncc(-c4cnn(C)c4)nc3c2)c1`, where the note is “compound 0.316 µM”, the viability, T/C was 92.2% [middle of 5 runs].

On to `CC(C)n1nc(-c2ccc3oc(N)nc3c2)c2c(N)ncnc21` + C=CC(=O)N1CCN(c2nc(OCC3CCCN3C)nc3c2CCN(c2cccc4cccc(C)c24)C3)CC1CC#N, for which the negative logarithm of the IC50 (pIC50) reads like this: (second compound 0.0316 µM) above 9.50; (second compound 0.1 µM) above 9.50; (second compound 0.316 µM) above 9.50; (second compound 1 µM) above 9.50; (second compound 3.16 µM) above 9.50. Also, the viability, T/C is 33.2% (second compound 0.0316 µM, first compound 0.000316 µM); 28.2% (second compound 0.0316 µM, first compound 0.001 µM); 20.5% (second compound 0.0316 µM, first compound 0.00316 µM); 19.3% (second compound 0.0316 µM, first compound 0.01 µM); 13.4% (second compound 0.0316 µM, first compound 0.0316 µM); 12.8% (second compound 0.0316 µM, first compound 0.1 µM). Also, the viability, T/C is 29.1% (second compound 0.1 µM, first compound 0.000316 µM); 27% (second compound 0.1 µM, first compound 0.001 µM); 18.3% under setting [1]; 15.4% under setting [2]; 13.7% under setting [3]; 10.6% under setting [4]. The viability, T/C by setting is: (second compound 0.316 µM, first compound 0.000316 µM) 32.7%; (second compound 0.316 µM, first compound 0.001 µM) 33.5%; under setting [7], 21.2%; under setting [8], 17.7%; under setting [9], 11.1%; under setting [10], 10.1%. In addition, the viability, T/C is 37.6% (second compound 1 µM, first compound 0.000316 µM); 31.6% (second compound 1 µM, first compound 0.001 µM); 25.6% under setting [13]; 14.4% under setting [14]; 12.5% under setting [15]; 9.9% under setting [16]. The viability, T/C reads like this: (second compound 3.16 µM, first compound 0.000316 µM) 35%; (second compound 3.16 µM, first compound 0.001 µM) 11.4%; under setting [19], 14.5%; under setting [20], 5.93%; under setting [21], 5.55%; under setting [22], 2.27%.

For the compound `O=C(c1cc(Cc2n[nH]c(=O)c3ccccc23)ccc1F)N1CCN(C(=O)C2CC2)CC1` + CC1OCC2(CCN(c3cnc(Sc4ccnc(N)c4Cl)c(N)n3)CC2)C1N, the pIC50 by setting is: (second compound 0.1 µM) below 5.00; (second compound 0.316 µM) above 7.50; (second compound 1 µM) above 7.50; (second compound 3.16 µM) above 7.50; (second compound 10 µM) above 7.50. The viability, T/C under setting [3] was 63.8%; the viability, T/C under setting [4] is 54%; the viability, T/C under setting [5] was 60.3%; the viability, T/C under setting [6] is 59.7%; the viability, T/C (second compound 0.1 µM, first compound 3.16 µM) is 54.4%; the viability, T/C (second compound 0.1 µM, first compound 10 µM) is 53.2%. Moreover, the viability, T/C by setting is: under setting [9], 37.9%; under setting [10], 35.5%; under setting [11], 32.3%; under setting [12], 32.9%; (second compound 0.316 µM, first compound 3.16 µM) 33.5%; (second compound 0.316 µM, first compound 10 µM) 38.2%. The viability, T/C under setting [16] is 40%; the viability, T/C under setting [17] is 35.5%; the viability, T/C under setting [18] is 29.8%; the viability, T/C (second compound 1 µM, first compound 3.16 µM) is 32.8%; the viability, T/C (second compound 1 µM, first compound 10 µM) was 28.6%; the viability, T/C under setting [21] is 20.9%. For the same compound, the viability, T/C is 20.8% under setting [22]; 24.8% under setting [23]; 26% under setting [24]; 23.9% (second compound 3.16 µM, first compound 3.16 µM); 23.8% (second compound 3.16 µM, first compound 10 µM); 10.2% under setting [25]. Moreover, the viability, T/C under setting [26] was 11%; the viability, T/C under setting [27] is 12.2%; the viability, T/C under setting [28] was 11.8%; the viability, T/C (second compound 10 µM, first compound 3.16 µM) is 14.2%; the viability, T/C (second compound 10 µM, first compound 10 µM) is 17.4%. Under setting [15], the result was inactive.
